Consider 1 compound from publication PMC6128596, “Cyclooxygenase pathway mediates the inhibition of Na-glutamine co-transporter B0AT1 in rabbit villus cells during chronic intestinal inflammation” (PLoS ONE, 2018).

This assay concerns T1, B0AT1.
T1 construct: gene SLC6A19; native full-length transporter in brush border membrane vesicles from rabbit ileal villus cells; not purified
Put plainly: Na-dependent [3H]glutamine uptake into villus BBMV, […] s, rapid filtration. Type of assay: biochemical, Oryctolagus cuniculus. The settings on record: control (normal) rabbits; 0.2-100 mM glutamine; 100 mM NaCl versus choline chloride; pH 7.5; 3H-glutamine tracer.

Regarding `NC(=O)CC[C@H](N)C(=O)O` [glutamine], the Km (commonly the substrate concentration at which the rate is half of its maximum) came to 24.6 ± 1.8 mM.
